The text below walks through data of patent US20260256923A1, “NEW RECRUITMENT ELEMENT OF UBIQUITIN LIGASE AND USE THEREOF” (SHENZHEN LINGGENE BIOTECH CO., LTD., priority 2023, published 2026).

One series addresses NCL (Homo sapiens, UniProt P19338). As to the kind of experiment: Biotin-oligonucleotide pull-down from HeLa cell lysate, western blot (NCL). Conditions: 5′-biotin label, 0 nM-20 μM. Also on record: HeLa cervical cancer cells were lysed with an IP lysis solution; endogenous in cells; host or cells: HeLa cell lysate. Format: binding. As for the experimental part: HeLa cervical cancer cells were lysed with an IP lysis solution (purchased from Thermo Scientific, Cat. No.: 87788) and then incubated with a CRO (cytosine-rich oligonucleotide, negative control, SEQ ID NO: 13), AS1411, or iSN04 labeled by biotin at the 5′ end at different concentrations (0 nM, 200 nM, 500 nM, 1 μM, 5 μM, 10 μM, and 20 μM) at 4° C. for 6h. Subsequently, streptavidin agarose gel beads (purchased from cytiva, Cat. No.: 17511301) were added, and the mixture was further incubated at 4° C. overnight. After the bound biotin-labeled CRO, AS411, or iSN04 and its captured proteins on the gel beads were washed multiple times with an IP lysis buffer (purchased from Thermo Scientific, Cat. No.: 87788), an SDS-PAGE protein loading buffer (purchased from Beyotime, Cat. No.: P0015) was added, and the mixture was heated to 100° C. and held for 10 min. After centrifugation, the supernatant was collected as a pull-down product. The pull-down product was detected by western blot assay.

The target of series [1] is T1, interaction between NCL and MDM2 (Homo sapiens, UniProt P19338).
T1 construct: HeLa cervical cancer cells were lysed with an IP lysis solution; endogenous in cells; host or cells: HeLa cell lysate
T1 sequence (P19338 2-710 limits assumed): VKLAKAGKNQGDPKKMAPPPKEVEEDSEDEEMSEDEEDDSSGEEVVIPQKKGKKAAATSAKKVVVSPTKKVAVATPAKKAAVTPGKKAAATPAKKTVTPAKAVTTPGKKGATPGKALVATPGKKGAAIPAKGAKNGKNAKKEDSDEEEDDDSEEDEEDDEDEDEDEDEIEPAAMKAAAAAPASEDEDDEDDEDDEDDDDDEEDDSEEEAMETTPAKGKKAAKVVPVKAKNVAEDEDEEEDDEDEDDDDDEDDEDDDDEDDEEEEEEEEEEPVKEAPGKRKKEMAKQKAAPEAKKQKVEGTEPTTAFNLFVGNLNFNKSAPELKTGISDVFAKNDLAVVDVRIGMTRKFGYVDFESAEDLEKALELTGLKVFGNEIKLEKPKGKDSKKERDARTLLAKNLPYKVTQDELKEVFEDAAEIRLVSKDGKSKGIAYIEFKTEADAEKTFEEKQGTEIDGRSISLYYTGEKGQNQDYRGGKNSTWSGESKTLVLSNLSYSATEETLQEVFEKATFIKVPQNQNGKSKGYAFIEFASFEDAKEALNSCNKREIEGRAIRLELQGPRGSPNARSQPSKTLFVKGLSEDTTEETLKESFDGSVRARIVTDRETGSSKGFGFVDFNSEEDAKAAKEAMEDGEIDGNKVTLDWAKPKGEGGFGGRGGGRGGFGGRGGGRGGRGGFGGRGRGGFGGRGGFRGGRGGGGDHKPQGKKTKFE
Put plainly: Co-immunoprecipitation of NCL and MDM2 from HeLa cell lysate, western blot. Format: binding. The note with it: 0-20 μM, 4° C. 6 h, IP with antibody against NCL. Here is the method:
Co-immunoprecipitation (Co-IP) is a classical method for the study of protein interactions based on the specific interaction between an antibody and an antigen. It is an effective method to determine the physiological interaction between two proteins in intact cells.
HeLa cervical cancer cells were lysed with an IP lysis solution (purchased from Thermo Scientific, Cat. No.: 87788) and then incubated with AS 1411 or iSN04 at different concentrations (0 μM, 1 μM, 5 μM, 10 μM, and 20 μM) at 4° C. for 6 h. Subsequently, […] of an antibody against NCL was added, and the mixture was further incubated at 4° C. overnight. Protein A/G magnetic beads (purchased from Thermo Scientific, Cat. No.: 88802) were added, and the mixture was incubated with rotation at room temperature for 1.5 h. The bound NCL and its interacting proteins on the magnetic beads were washed with an IP lysis buffer (purchased from Thermo Scientific, Cat. No.: 87788), and an SDS-PAGE protein loading buffer (purchased from Beyotime, Cat. No.: P0015) was added. The mixture was heated to 100° C. and held for 10 min. The magnetic beads were adsorbed on a magnetic rack, and the supernatant was transferred into a new tube. Subsequently, western blot assay was performed to detect whether NCL bound to MDM2 and whether the binding was affected by AS 1411 or iSN04. […]
(Immunoblotting shows a protein as a band on a membrane.)

The target in a further series is MDM2 (Homo sapiens, UniProt Q00987). Put plainly: Pull-down with biotin-labeled AS1411 in HeLa cells transfected with si-NC or si-NCL. Conditions: 500 nM biotin-labeled, 6 h, si-NCL vs si-NC. Also on record: HeLa cervical cancer cells were lysed with an IP lysis solution; endogenous in cells; host or cells: HeLa. Format: cell-based. Here is the method:
HeLa cells were transfected with negative control siRNA (si-NC, SEQ ID NO: 16) or NCL siRNA (si-NCL, SEQ ID NO: 17) and subsequently incubated with 500 nM biotin-labeled AS1411 for 6 h. After cell lysis, the supernatant was incubated with streptavidin-coated magnetic beads at 4° C. overnight. The bound AS1411 and its captured proteins on the magnetic beads were eluted with an eluent, and the pull-down products were detected by western blot assay.

Sequence of MDM2 (P19338 2-710 partner limits assumed): as the sequence (P19338 2-710 limits assumed) above
Sequence of MDM2 (Q00987 whole entry): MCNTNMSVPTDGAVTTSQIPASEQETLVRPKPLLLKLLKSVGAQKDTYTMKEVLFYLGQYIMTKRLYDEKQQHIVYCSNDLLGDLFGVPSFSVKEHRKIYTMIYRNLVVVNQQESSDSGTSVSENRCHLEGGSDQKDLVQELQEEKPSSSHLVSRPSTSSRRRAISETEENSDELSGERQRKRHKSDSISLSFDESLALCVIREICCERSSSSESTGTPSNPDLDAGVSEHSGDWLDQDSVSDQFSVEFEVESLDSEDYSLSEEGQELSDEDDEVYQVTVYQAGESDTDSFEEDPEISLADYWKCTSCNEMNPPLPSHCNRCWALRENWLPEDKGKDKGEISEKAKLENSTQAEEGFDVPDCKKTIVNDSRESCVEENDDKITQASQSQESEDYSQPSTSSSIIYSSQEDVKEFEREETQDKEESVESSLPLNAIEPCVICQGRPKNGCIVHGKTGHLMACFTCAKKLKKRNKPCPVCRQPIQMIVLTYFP
Sequence of NCL (P19338 whole entry): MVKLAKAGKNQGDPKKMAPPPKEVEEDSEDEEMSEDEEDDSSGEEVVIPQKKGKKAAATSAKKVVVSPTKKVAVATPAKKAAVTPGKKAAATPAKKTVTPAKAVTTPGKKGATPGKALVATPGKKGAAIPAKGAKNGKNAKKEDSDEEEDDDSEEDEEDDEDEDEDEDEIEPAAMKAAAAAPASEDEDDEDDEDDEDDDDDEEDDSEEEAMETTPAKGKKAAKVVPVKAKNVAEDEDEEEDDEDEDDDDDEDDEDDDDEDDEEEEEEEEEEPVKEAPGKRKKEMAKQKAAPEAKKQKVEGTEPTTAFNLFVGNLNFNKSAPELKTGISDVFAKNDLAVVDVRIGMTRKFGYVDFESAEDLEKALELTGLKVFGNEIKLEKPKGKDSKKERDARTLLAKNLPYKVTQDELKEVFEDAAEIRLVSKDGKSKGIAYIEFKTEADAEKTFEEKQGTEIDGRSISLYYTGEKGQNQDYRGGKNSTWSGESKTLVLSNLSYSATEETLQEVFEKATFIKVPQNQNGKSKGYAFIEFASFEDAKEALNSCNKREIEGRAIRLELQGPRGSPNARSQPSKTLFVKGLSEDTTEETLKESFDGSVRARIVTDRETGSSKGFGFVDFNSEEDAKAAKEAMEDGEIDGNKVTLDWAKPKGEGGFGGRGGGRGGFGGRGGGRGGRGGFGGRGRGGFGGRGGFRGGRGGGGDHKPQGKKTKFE

As to “AS1411: DNA aptamer, GRO binding NCL, SEQ ID NO: 1: 5′-GGTGGTGGTGGTTGTGGTGGTGGTGG-3′”, the “capture of NCL” value in the series with NCL is “can capture NCL and MDM2 in a concentration-dependent manner”. Further, in series [1], the “effect on the interaction between NCL and MDM2” value was “does not affect the interaction between NCL and MDM2”. Also, in the series with MDM2, the “recruitment of MDM2 when NCL is silenced” value is reported as “silencing NCL can block the recruitment of MDM2 by AS1411”.
